Key:
[1] = target: T1, human neurokinin 2 (NK2) receptor (Homo sapiens, UniProt P21452); assay: Neurokinin receptor binding assay, NK2 ([3H]-Neurokinin A, CHO cell membranes); settings: competition with [3H]-Neurokinin A, Cheng and Prusoff
T1 construct: expressed in transfected cells; host or cells: Chinese hamster ovary (CHO) cells, membranes
T1 sequence (P21452 1-398): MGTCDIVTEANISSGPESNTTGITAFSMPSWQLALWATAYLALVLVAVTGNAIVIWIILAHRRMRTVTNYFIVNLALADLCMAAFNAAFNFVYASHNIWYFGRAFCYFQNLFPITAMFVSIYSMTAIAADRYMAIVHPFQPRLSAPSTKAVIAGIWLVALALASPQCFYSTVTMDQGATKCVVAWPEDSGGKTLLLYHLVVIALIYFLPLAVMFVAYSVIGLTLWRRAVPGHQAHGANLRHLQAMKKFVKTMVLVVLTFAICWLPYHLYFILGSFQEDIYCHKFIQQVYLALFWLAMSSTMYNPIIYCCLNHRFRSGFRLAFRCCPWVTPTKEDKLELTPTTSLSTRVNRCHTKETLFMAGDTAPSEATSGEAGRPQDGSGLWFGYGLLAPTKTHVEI
Description: (§1) Neurokinin Receptor Binding Assay(s)
(§2) Chinese Hamster ovary (CHO) cells transfected with the coding regions for the human neurokinin 1 (NK1) of the human neurokinin 2 (NK2) receptors are grown in Dulbecco's minimal essential medium supplemented with 10% fetal calf serum, 0.1 mM non-essential amino acids, 2 mM glutamine, 100 units/ml of penicillin and streptomycin, and 0.8 mg of G418/ml at 37° C. in a humidified atmosphere containing 5% CO2.
(§3) Cells are detached from T-175 flasks with a sterile solution containing 5 mM EDTA in phosphate buffered saline. Cells are harvested by centrifugation and washed in RPMI media at […] for 5 minutes. The pellet is resuspended in Tris-HCl(pH7.4) containing 1 uM phosphoramidon and 4 ug/ml of chymostatin at a cell density of 30×10^6 cells/ml. The suspension is then homogenized in a Brinkman Polytron (setting 5) for 30-45 seconds. The homogenate is centrifuged at 800×g for 5 min at 4° C. to collect unbroken cells and nuclei. The supernatant is centrifuged in a Sorvall RC5C at 19,000 rpm ([…]) for 30 min at 4° C. The pellet is resuspended, an aliquot is removed for a protein determination (BCA) and washed again. The resulting pellet is stored at -80° C.
(§4) Binding is initiated by the addition of 100 μl of membrane (10-20 μg) containing the human NK-1 or NK-2 receptor in a final volume of 200 μl. After 40 minutes at room temperature, the reaction is stopped by rapid filtration onto Whatman GF/C filters which have been presoaked in 0.3% polyethylenimine. Filters are washed 2 times with 3 ml of 50 mM Tris-HCl (pH7.4). Filters are added to 6 mls of Ready-Safe liquid scintillation cocktail and quantified by liquid scintillation spectrometry in a LKB 1219 RackBeta counter. Non-specific binding is determined by the addition of either 1 μM of CP-99994 (NK1) or 1 μM SR-48968 (NK2) (both synthesized by the chemistry department of Schering-Plough Research Institute).

[2] = target: T2, human neurokinin 1 (NK1) receptor (Homo sapiens, UniProt P25103); assay: Neurokinin receptor binding assay, NK1 ([3H]-Substance P, CHO cell membranes); settings: competition with [3H]-Substance P, Cheng and Prusoff
T2 construct: expressed in transfected cells; host or cells: Chinese hamster ovary (CHO) cells, membranes
Description: as §1, §2, §3, §4

T2 sequence (P25103 whole entry): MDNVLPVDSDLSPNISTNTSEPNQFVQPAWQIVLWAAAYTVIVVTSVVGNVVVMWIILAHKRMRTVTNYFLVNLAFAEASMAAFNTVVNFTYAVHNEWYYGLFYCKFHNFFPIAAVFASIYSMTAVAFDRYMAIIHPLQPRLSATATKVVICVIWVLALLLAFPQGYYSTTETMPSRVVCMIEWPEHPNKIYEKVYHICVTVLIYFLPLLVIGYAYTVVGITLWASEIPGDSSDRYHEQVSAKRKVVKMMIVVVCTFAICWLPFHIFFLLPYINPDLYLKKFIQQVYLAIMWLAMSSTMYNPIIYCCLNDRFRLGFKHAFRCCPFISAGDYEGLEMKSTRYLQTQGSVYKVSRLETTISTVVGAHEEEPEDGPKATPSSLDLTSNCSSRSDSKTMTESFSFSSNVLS

SMILES	Ki [1]	Ki [2]
Cc1cc(C)cc(C(=O)N2CCN(C(=O)CCN3C[C@@H]4C[C@H]3CN4C(=O)[C@@H](N)Cc3cccs3)[C@H](c3ccc(Cl)c(Cl)c3)C2)c1	0.35 nM	16 nM
CC(=O)Nc1ccc(CN2C[C@@H]3C[C@H]2C[C@H]3OCC(=O)N2CCN(C(=O)c3cc(C)cc(C)c3)C[C@H]2c2ccc(Cl)c(Cl)c2)cc1 [Example 51]	4.4 nM	1.5 nM
Cc1cc(C)cc(C(=O)N2CCN(C(=O)CO[C@H]3C[C@H]4CC[C@@H](C3)N4C(=O)OC(C)(C)C)[C@H](c3ccc(Cl)c(Cl)c3)C2)c1 [Example 56, (Endo)-1,1-dimethylethyl 3-[2-[2(R)-(3,4-dichlorophenyl)-4-(3,5-dimethylbenzoyl)-1-piperazinyl]-2-oxoethoxy]-8-aza[3.2.1]octane-8-carboxylate]	55 nM	> 100 nM
CNC(=O)c1ccc(CN2[C@@H]3CC[C@H]2C[C@@H](OCC(=O)N2CCN(C(=O)c4cc(C)cc(C)c4)C[C@H]2c2ccc(Cl)c(Cl)c2)C3)cc1 [Example 58]	57 nM	19 nM
Cc1cc(C)cc(C(=O)N2CCN(C(=O)CN[C@H]3C[C@H]4CC[C@@H](C3)N4C(=O)OC(C)(C)C)[C@H](c3ccc(Cl)c(Cl)c3)C2)c1 [Example 67]	9.3 nM	159 nM

Now from value to compound:

Ki [1]	Ki [2]	SMILES
14 nM	45 nM	Cc1cc(C)cc(C(=O)N2CCN(C(=O)CCN3C[C@@H]4C[C@H]3CN4C(=O)[C@H](Cc3ccccc3)NC(=O)OC(C)(C)C)[C@H](c3ccc(Cl)c(Cl)c3)C2)c1
0.93 nM	6.3 nM	CNC(=O)N[C@H](Cc1ccccc1)C(=O)N1C[C@@H]2C[C@H]1CN2CCC(=O)N1CCN(C(=O)c2cc(C)cc(C)c2)C[C@H]1c1ccc(Cl)c(Cl)c1 [35 (R = --CH3)]
24 nM	34 nM	Cc1cc(C)cc(C(=O)N2CCN(C(=O)CCN3C[C@@H]4C[C@H]3CN4C(=NC#N)Nc3ccccc3)[C@H](c3ccc(Cl)c(Cl)c3)C2)c1 [Example 30]
2.6 nM	1.8 nM	Cc1cc(C)cc(C(=O)N2CCN(C(=O)CO[C@@H]3C[C@@H]4C[C@H]3CN4Cc3ccsc3)[C@H](c3ccc(Cl)c(Cl)c3)C2)c1 [Example 50, 2(R)-(3,4-Dichlorophenyl)-4-(3,5-dimethylbenzoyl)-1-[[[exo-2-(3-thienylmethyl)-1(S),4(S)-2-azabicyclo[2.2.1]heptan-5-yl)oxy]acetyl]piperazine]

Reference: patent US5968929A, “Piperazino derivatives as neurokinin antagonists” (Schering Corporation, priority 1997, dated 1999)
